± gives the expanded uncertainty stated by the source.
Legend:
[1] = Liquid; for mass density: 298.15 K, 101.33 kPa
[2] = refractive index (Na D-line) (dimensionless); details: 298.15 K; 101.33 kPa; Liquid; Standard Abbe refractometry

## CC(=O)C(C)C [3-methyl-2-butanone]
[1]
  mass density: 799.55 ± 0.65 kg/m3
[1]; 310.45 K
  vapor or sublimation pressure: 12.1 ± 0.11 kPa
[1]; 318.08 K
  vapor or sublimation pressure: 16.98 ± 0.11 kPa
[1]; 324.32 K
  vapor or sublimation pressure: 22.06 ± 0.12 kPa
[1]; 328.85 K
  vapor or sublimation pressure: 26.46 ± 0.13 kPa
[1]; 330 K
  vapor or sublimation pressure: 27.69 ± 0.79 kPa
[1]; 333.49 K
  vapor or sublimation pressure: 31.7 ± 0.14 kPa
[1]; 337.18 K
  vapor or sublimation pressure: 36.45 ± 0.15 kPa
[1]; 340 K
  vapor or sublimation pressure: 40.45 ± 0.87 kPa
[1]; 340.26 K
  vapor or sublimation pressure: 40.84 ± 0.16 kPa
[1]; 346.23 K
  vapor or sublimation pressure: 50.54 ± 0.18 kPa
[1]; 348.87 K
  vapor or sublimation pressure: 55.4 ± 0.19 kPa
[1]; 353.57 K
  vapor or sublimation pressure: 64.95 ± 0.21 kPa
[1]; 357.9 K
  vapor or sublimation pressure: 74.9 ± 0.23 kPa
[1]; 361.86 K
  vapor or sublimation pressure: 84.97 ± 0.26 kPa
[1]; 365.36 K
  vapor or sublimation pressure: 94.78 ± 0.28 kPa
[2]
  refractive index: 1.3862 ± 0.00074

## CCCC(C)C [2-methylpentane]
[1]
  mass density: 648.46 ± 0.59 kg/m3
[1]; 330 K
  vapor or sublimation pressure: 90.76 ± 1.2 kPa
[2]
  refractive index: 1.36877 ± 0.00072

## CC(C)C(C)O (configuration not stated) [3-methyl-2-butanol]
[1]
  mass density: 813.42 ± 0.65 kg/m3
[1]; 323.61 K
  vapor or sublimation pressure: 6.527 ± 0.1 kPa
[1]; 329.8 K
  vapor or sublimation pressure: 9.28 ± 0.1 kPa
[1]; 330 K
  vapor or sublimation pressure: 9.35 ± 0.68 kPa
[1]; 333.31 K
  vapor or sublimation pressure: 11.16 ± 0.11 kPa
[1]; 336.52 K
  vapor or sublimation pressure: 13.19 ± 0.11 kPa
[1]; 340 K
  vapor or sublimation pressure: 15.7 ± 0.72 kPa
[1]; 340.67 K
  vapor or sublimation pressure: 16.23 ± 0.11 kPa
[1]; 346.13 K
  vapor or sublimation pressure: 21.09 ± 0.12 kPa
[1]; 354.08 K
  vapor or sublimation pressure: 30.24 ± 0.14 kPa
[1]; 360.75 K
  vapor or sublimation pressure: 40.25 ± 0.16 kPa
[1]; 365.98 K
  vapor or sublimation pressure: 49.79 ± 0.18 kPa
[1]; 370.47 K
  vapor or sublimation pressure: 59.38 ± 0.21 kPa
[1]; 374.44 K
  vapor or sublimation pressure: 69.02 ± 0.23 kPa
[1]; 380.99 K
  vapor or sublimation pressure: 87.65 ± 0.28 kPa
[1]; 382.59 K
  vapor or sublimation pressure: 92.61 ± 0.29 kPa
[2]
  refractive index: 1.407 ± 0.00074
